No end group written: not given here. *: point of attachment. Palmitoyl = CCCCCCCCCCCCCCCC(=O)*

One test has as its system BMDM. Put plainly: cells. The class given is cell-based, mice. The following applies: Mus musculus, read-out: inhibition of TNFα production (as a measure of protein synthesis).
Test [1] has as its system bone marrow derived macrophages (BMDM). Type of test: cell-based, mice.
Test [2] deals with RAW264.7 cells. Type of test: cell-based, murine.
The test system of test [3] is RAW264.7 cells. The class given is cell-based, murine. The source holds these as a separate data set.
In the next test the target is T1, human TLR2 (Homo sapiens, UniProt O60603).
T1 construct: using an HEK293 cell line stably transfected with cDNA encoding human TLR2
The class given is cell-based.

T1 sequence (O60603 21-784): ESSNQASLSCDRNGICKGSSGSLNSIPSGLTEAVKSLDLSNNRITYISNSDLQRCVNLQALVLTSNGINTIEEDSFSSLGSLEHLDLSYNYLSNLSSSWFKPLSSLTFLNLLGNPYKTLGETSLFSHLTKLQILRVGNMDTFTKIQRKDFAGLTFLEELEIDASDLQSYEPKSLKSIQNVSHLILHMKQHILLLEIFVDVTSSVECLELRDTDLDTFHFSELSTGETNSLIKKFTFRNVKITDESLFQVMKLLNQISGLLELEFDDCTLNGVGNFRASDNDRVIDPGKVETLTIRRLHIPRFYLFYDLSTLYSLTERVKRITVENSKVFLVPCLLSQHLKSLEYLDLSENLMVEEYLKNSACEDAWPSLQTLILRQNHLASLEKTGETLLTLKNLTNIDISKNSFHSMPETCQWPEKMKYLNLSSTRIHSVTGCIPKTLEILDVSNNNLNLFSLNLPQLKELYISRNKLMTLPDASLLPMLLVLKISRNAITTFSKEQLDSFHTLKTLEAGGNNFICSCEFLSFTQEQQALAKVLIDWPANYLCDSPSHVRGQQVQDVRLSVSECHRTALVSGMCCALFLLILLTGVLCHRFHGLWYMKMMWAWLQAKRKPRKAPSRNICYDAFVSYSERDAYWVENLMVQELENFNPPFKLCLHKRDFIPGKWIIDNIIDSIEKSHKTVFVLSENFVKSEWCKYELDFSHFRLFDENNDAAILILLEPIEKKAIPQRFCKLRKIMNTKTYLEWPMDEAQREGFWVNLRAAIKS

As a reminder, the inhibition is the share of the control response that was lost under treatment. `C[C@@H]1C[C@@H]([C@H](O)CC2CC(=O)NC(=O)C2)C(=O)[C@@H](C)C1` [cycloheximide]: the inhibition at 0.5 µM in the test on BMDM is approximately 90%. Further, in test [1], the “effect on ability of wild-type or ΔlspA Mycobacterium tuberculosis to inhibit IFNγ induction of CIITA gene expression” value was “prevented”. Turning to “(S)-[2,3-Bis(palmitoyloxy)-(2-RS)-propyl]-N-palmitoyl-(R)-Cys-(S)-Ser-(S)-Lys4-OH, 3HCl (Palmitoyl-CSKKKK-OH; not fully specified (residue 1); also: 3 HCl salt) [Pam3CSK4, synthetic triacylated hexapeptide, TLR2/TLR1 agonist]”, the “IFNγ induction of class II transactivator (CIITA) mRNA” value with RAW264.7 cells [2] was “potently inhibited”. Besides, in the test on RAW264.7 cells [3], the “inhibition of IFNγ induction of surface MHC class II” value is given as “greater than 90%”. For “(S)-[2,3-Bis(palmitoyloxy)-(2-RS)-propyl]-(R)-Cys-(S)-Ser-(S)-Lys4×3 CF3COOH (CSKKKK; not fully specified (residue 1); also: 3 CF3COOH salt) [Pam2CSK4, diacylated analog of Pam3CSK4]”, the “activation of 293-TLR2 cells / secretion of IL-8 (in words)” value in the test with human TLR2 is listed as “significant amounts of IL-8”. In the case of macrophage-activating lipopeptide-2, the “activation of 293-TLR2 cells / secretion of IL-8 (in words)” value at human TLR2 is on record as “significant amounts of IL-8”.
